Measured values reported in the supplement of paper PMC13380429.

What was measured:
Details in all cases: 72 h
[1] = test system: Calu-3; test: relative viability EC50 (midpoint between 100% and the lowest measured viability); higher = less toxic
[2] = test system: HepG2; test: as above
[3] = test system: Vero E6; test: as above
[4] = test system: U2OS; test: as above
[5] = test system: Caco-2; test: as above
[6] = test system: Calu-3; test: cell viability relative to DMSO; higher = less toxic
[7] = test system: HepG2; test: as above
[8] = test system: Vero E6; test: as above
[9] = test system: U2OS; test: as above
[10] = test system: Caco-2; test: as above
[11] = test system: Calu-3; test: drug sensitivity score (DSS) for viability; higher = more toxic; extreme values may be limits of the assay
[12] = test system: HepG2; test: as above
[13] = test system: Vero E6; test: as above
[14] = test system: U2OS; test: as above
[15] = test system: Caco-2; test: as above

Row | SMILES | relative viability EC50 [1] [µM] | relative viability EC50 [2] [µM] | relative viability EC50 [3] [µM] | relative viability EC50 [4] [µM] | relative viability EC50 [5] [µM] | cell viability ([6]; 1 nM) [%] | cell viability ([6]; 10 nM) [%] | cell viability ([6]; 100 nM) [%] | cell viability ([6]; 1000 nM) [%] | cell viability ([6]; 10000 nM) [%] | cell viability ([7]; 1 nM) [%] | cell viability ([7]; 10 nM) [%] | cell viability ([7]; 100 nM) [%] | cell viability ([7]; 1000 nM) [%] | cell viability ([7]; 10000 nM) [%] | cell viability ([8]; 1 nM) [%] | cell viability ([8]; 10 nM) [%] | cell viability ([8]; 100 nM) [%] | cell viability ([8]; 1000 nM) [%] | cell viability ([8]; 10000 nM) [%] | cell viability ([9]; 1 nM) [%] | cell viability ([9]; 10 nM) [%] | cell viability ([9]; 100 nM) [%] | cell viability ([9]; 1000 nM) [%] | cell viability ([9]; 10000 nM) [%] | cell viability ([10]; 1 nM) [%] | cell viability ([10]; 10 nM) [%] | cell viability ([10]; 100 nM) [%] | cell viability ([10]; 1000 nM) [%] | cell viability ([10]; 10000 nM) [%] | drug sensitivity score [11] | drug sensitivity score [12] | drug sensitivity score [13] | drug sensitivity score [14] | drug sensitivity score [15]
1 | FCc1ccc(OCCOc2ccc(Cl)cc2Cl)c(Cl)n1 | > 10 | > 10 | > 10 | > 10 | > 10 | 101 | 101 | 101 | 97.9 | 92.4 | 94.8 | 97.1 | 98.9 | 104 | 86.3 | 95.2 | 105 | 96.6 | 103 | 103 | 100 | 96.4 | 102 | 94.4 | 92.7 | 92.7 | 92.8 | 107 | 90.5 | 77 | 0 | 0.1 | 0 | 0 | 1.9
2 | O=C1c2cccnc2OC[C@@H]2CCCN12 | > 10 | > 10 | > 10 | > 10 | > 10 | 103 | 87.1 | 98.9 | 101 | 91.1 | 96.9 | 98.8 | 96.1 | 102 | 99.2 | 93.8 | 98.5 | 90.5 | 91 | 103 | 103 | 98.6 | 95.9 | 97.7 | 96.4 | 108 | 99.6 | 100 | 95.6 | 100 | 0 | 0 | 0 | 0 | 0
3 | CC(=C(CCOC(=O)C(C)C)SSC(CCOC(=O)C(C)C)=C(C)N(C=O)Cc1cnc(C)nc1N)N(C=O)Cc1cnc(C)nc1N (stereo in doubt) [sulbutiamine] | > 10 | > 10 | > 10 | > 10 | – | 109 | 111 | 112 | 105 | 89.1 | 101 | 84.5 | 112 | 95.3 | 97.4 | 100 | 84.3 | 98.7 | 89.2 | 95.1 | 101 | 106 | 105 | 101 | 92.8 | 90.8 | 105 | 70.2 | 98.5 | 81.8 | 0 | 0 | 0 | 0 | 1.2
4 | c1cc(OCCN2CCCCC2)cc(-c2n[nH]c3ccc(-c4nnc[nH]4)cc23)c1 [CC-401] | > 10 | – | > 10 | > 10 | > 10 | 104 | 89.2 | 96 | 95.2 | 122 | 94.5 | 96.7 | 88.4 | 90.7 | 61.5 | 101 | 98 | 101 | 103 | 95.2 | 101 | 96.4 | 100 | 94.1 | 93.4 | 101 | 95.7 | 95.5 | 97.3 | 106 | 0 | 2.9 | 0 | 0 | 0
5 | CC(C)[C@@H]1CC[C@@H](C)C[C@@H]1P(=O)(c1ccccc1)c1ccccc1 [DPO-1] | > 10 | – | > 10 | > 10 | > 10 | 95.9 | 98.4 | 96.7 | 93.7 | 94.1 | – | – | – | – | – | 112 | 105 | 110 | 96.6 | 105 | 98.5 | 100 | 97.3 | 102 | 93.7 | 100 | 102 | 98.7 | 96.6 | 78 | 0 | – | 0 | 0 | 1.2
6 | CCOC(=O)CCNc1cc(N2CCc3ccccc3CC2)nc(-c2ccccn2)n1 [GSK-J4] | 2.93 | 3.45 | – | 2.74 | 1.28 | 103 | 89.5 | 96.5 | 97.5 | 21.2 | 103 | 103 | 97.8 | 104 | 33.5 | 93.9 | 101 | 91.7 | 96.8 | 63.2 | 97.8 | 97.6 | 99.3 | 94.8 | 5.5 | 93.2 | 88.2 | 104 | 70.9 | 17.4 | 4.7 | 3.4 | 2.3 | 6 | 8.6
7 | COc1oc(=O)c2cc(N)ccc2c1Cl [JLK-6] | > 10 | – | > 10 | > 10 | > 10 | 103 | 105 | 106 | 94.9 | 80.9 | 96.6 | 113 | 103 | 105 | 73.1 | 108 | 104 | 100 | 104 | 93.8 | 99.7 | 98.2 | 99.1 | 99.4 | 91.7 | 99.2 | 94.6 | 96.1 | 95.4 | 76.6 | 1.1 | 0.8 | 0 | 0 | 1.5
8 | Cn1cc(-c2cnc3ccc4ccc(CS(=O)(=O)NCc5ccccn5)cc4c(=O)c3c2)cn1 [MK-8033] | > 10 | – | > 10 | > 10 | > 10 | 99.8 | 87.8 | 105 | 94.5 | 99.9 | 113 | 93.3 | 110 | 95.3 | 53.8 | 104 | 98.8 | 104 | 99.4 | 97.7 | 97.6 | 98.7 | 98.7 | 101 | 91.7 | 96.4 | 95.6 | 91.8 | 97.9 | 75.1 | 0 | 3.2 | 0 | 0 | 1.2
9 | CN(C)CCCNC(=O)c1ccc(-c2cc(O)c3ncccc3c2)cc1 [ML324] | > 10 | 3.52 | – | > 10 | > 10 | 105 | 93.8 | 106 | 94.1 | 83.4 | 88.7 | 103 | 88.2 | 104 | 35.7 | 98.5 | 100 | 96.2 | 101 | 58.1 | 105 | 98.9 | 107 | 98.5 | 85 | 107 | 94.3 | 107 | 91.7 | 80.6 | 0.9 | 3.2 | 2 | 0.4 | 1.4
10 | CC1(C)CCC[C@]2(C)[C@H]3CC(=O)O[C@]3(C)CC[C@@H]12 [Sclareolide (Norambreinolide)] | > 10 | > 10 | – | > 10 | > 10 | 100 | 104 | 99.4 | 107 | 87.6 | 106 | 99.1 | 108 | 101 | 100 | – | – | – | – | – | 100 | 100 | 97 | 99.5 | 99.5 | 95.7 | 96.6 | 92.7 | 102 | 88.5 | 0 | 0 | – | 0 | 0
11 | CN(C)CCCO[C@@H]1[C@H]2OC(C)(C)O[C@H]2O[C@@H]1[C@H](O)CO [amiprilose] | > 10 | > 10 | – | > 10 | > 10 | 98.7 | 102 | 98 | 101 | 100 | 91.3 | 102 | 97.3 | 99.6 | 85.8 | – | – | – | – | – | 102 | 99.8 | 100 | 103 | 101 | 107 | 86.8 | 101 | 95.1 | 97.3 | 0 | 0.2 | – | 0 | 0
12 | Nc1ccc(F)cc1NC(=O)c1ccc(CNC(=O)/C=C/c2cccnc2)cc1 [chidamide] | 0.365 | 1.17 | – | 1.56 | – | 113 | 101 | 89.4 | 49.1 | 35.1 | 97.6 | 105 | 91.4 | 69.4 | 28.1 | 95.6 | 99.7 | 95.4 | 100 | 67.5 | 101 | 103 | 104 | 77.6 | 9.8 | 95.3 | 104 | 97.1 | 85.1 | 55.9 | 10.7 | 7.4 | 1.4 | 8.4 | 4.1
13 | CCCC(=O)OCOC(=O)C1=C(C)NC(C)=C(C(=O)OC)C1c1cccc(Cl)c1Cl (stereo unspecified) [cleviprex] | > 10 | > 10 | – | > 10 | > 10 | 101 | 92 | 105 | 108 | 118 | 97.9 | 97.8 | 110 | 111 | 99.8 | – | – | – | – | – | 98.8 | 104 | 100 | 107 | 95.3 | 97.6 | 109 | 99.1 | 102 | 87 | 0 | 0 | – | 0 | 0.1
14 | CCCCCCCCCCCCCCCC(=O)O[C@@H]1[C@@H](O)[C@@H](O)[C@@H]([C@H](NC(=O)[C@@H]2C[C@@H](CCC)CN2C)[C@H](C)Cl)O[C@@H]1SC [clindamycin-palmitate] | > 10 | – | > 10 | > 10 | > 10 | 99.9 | 102 | 103 | 96.7 | 104 | – | – | – | – | – | 95.5 | 96.6 | 93.5 | 97 | 103 | 94.2 | 99.7 | 97.7 | 101 | 106 | 95 | 94.7 | 90.2 | 101 | 95.4 | 0 | – | 0 | 0 | 0
15 | CN(C)CC[C@@](O)(c1ccccc1)c1ccccc1Cl [clofedanol] | > 10 | > 10 | > 10 | > 10 | – | 101 | 106 | 102 | 101 | 96.4 | 93.7 | 97.1 | 101 | 94.2 | 113 | 104 | 96.5 | 99.5 | 88.9 | 101 | 99.2 | 98.1 | 92.7 | 102 | 100 | 93.4 | 89.6 | 103 | 95.8 | 72.5 | 0 | 0 | 0 | 0 | 1.8
